Active and inactive are the calls of the source. No cut-off for these calls is given here.
What was measured:
[1] = biological target: T1, Macrophage migration inhibitory factor (Homo sapiens) (UniProt P14174); assay: Inhibition of recombinant human macrophage migration inhibitory factor binding to human ectodomain CD74 at 0.1 to 2.5 uM
T1 sequence (whole entry): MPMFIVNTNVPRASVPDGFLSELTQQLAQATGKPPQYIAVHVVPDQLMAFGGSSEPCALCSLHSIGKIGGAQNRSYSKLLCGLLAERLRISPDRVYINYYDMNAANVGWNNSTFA

Plasmodium falciparum = assay: Inhibition of purified full-length biotinylated-Plasmodium falciparum macrophage migration inhibitory factor binding to human sCD74 at 2.5 uM after 45 mins

inhibition [1]	inhibition (Plasmodium falciparum) [%]	SMILES
inactive	75	COc1ccc(-c2cc(Oc3cc(C)cc(OC)c3)cc(C)n2)cc1
inactive	25	Cc1cc(Oc2cccc(O)c2)cc(-c2ccccc2)n1
